In US11771662B2, “Analgesic formulation for control of pain in dogs” (Kansas State University Research Foundation, priority 2017, dated 2023):
“And” between values parts separate entries of the source, which are not always exact repeats. Equal entries are not always repeated.

Key:
[1] = Plasma methadone concentrations by liquid chromatography/triple quadrupole mass spectrometry (Example I); details: for concentration at 24 h / concentration at 0 h / concentration at 0.333 h / concentration at 0.667 h / concentration at 1 h / concentration at 2 h / concentration at 4 h / concentration at 6 h / concentration at 8 h / concentration at 12 h: dog, in vivo, Mean plasma methadone concentration; for Plasma methadone concentration, individual dogs: Dog 1-6
[2] = system: dogs undergoing ovariohysterectomy; assay: Adverse effects in ovariohysterectomy clinical trial (Example IV); details: injection group, 0.5 mg/kg SC q 4 h
[3] = Plasma methadone, fluconazole, naltrexone and naltrexone metabolite concentrations (Example IV)
Source text: Anesthesia was monitored by licensed veterinary technicians.

[4] = humans; cited from earlier work
[5] = Plasma methadone, naltrexone and naltrexone metabolites, multiple oral doses (Example III); format: in vivo, dog; details: oral methadone/fluconazole/naltrexone formulation, both groups; throughout dosing and at least 12 hours after the last dose
Source text: Twelve healthy Beagle dogs were divided into two groups of 6 each in a parallel study design. […] Group 1 simulated a patient dropped off the night before surgery, while Group 2 simulated a patient dropped off in the morning for same day early afternoon surgery. Rectal temperature was monitored as a marker of central opioid effects throughout the study and von Frey thresholds were obtained to assess the antinociceptive effects.

[6] = system: dogs undergoing ovariohysterectomy; assay: Postoperative pain: Glasgow Composite Pain Scale and need for rescue analgesic (Example IV); details: 0.5 mg/kg SC q 4 h; total 13
healthy dogs = assay: Sedation assessment after oral methadone alone or with oral fluconazole (Example I); format: in vivo, dog; details: methadone alone 1 mg/kg PO
[7] = system: dogs undergoing ovariohysterectomy; assay: Pre-anesthetic sedation in ovariohysterectomy clinical trial (Example IV); details: 0.5 mg/kg SC q 4 h; with acepromazine 0.05 mg/kg SC
[8] = system: dogs undergoing ovariohysterectomy; assay: Ease of IV catheter placement in ovariohysterectomy clinical trial (Example IV); details: 0.5 mg/kg SC q 4 h; with acepromazine 0.05 mg/kg SC
in vivo = assay: in vivo
Experimental: Five healthy mixed breed, purpose bred dogs were included in this study. […] Blood was obtained immediately prior to the 4 hour dose (i.e. a trough sample).

Structure (SMILES): CCC(=O)C(CC(C)N(C)C)(c1ccccc1)c1ccccc1 (racemic) [methadone]
- concentration at 24 h ([1]; methadone 1 mg/kg PO 24 h after starting fluconazole 2.5 mg/kg PO q 12 h, 24 hr): 5.6 ng/mL
- concentration at 0 h ([1]; methadone 1 mg/kg PO 24 h after starting fluconazole 5 mg/kg PO q 12 h, 0 hr): 0 ng/mL
- concentration at 0.333 h ([1]; methadone 1 mg/kg PO 24 h after starting fluconazole 5 mg/kg PO q 12 h, 0.333 hr): 14 ng/mL
- concentration at 0.667 h ([1]; methadone 1 mg/kg PO 24 h after starting fluconazole 5 mg/kg PO q 12 h, 0.667 hr): 10.3 ng/mL
- concentration at 1 h ([1]; methadone 1 mg/kg PO 24 h after starting fluconazole 5 mg/kg PO q 12 h, 1 hr): 24.3 ng/mL
- concentration at 2 h ([1]; methadone 1 mg/kg PO 24 h after starting fluconazole 5 mg/kg PO q 12 h, 2 hr): 43.6 ng/mL
- concentration at 4 h ([1]; methadone 1 mg/kg PO 24 h after starting fluconazole 5 mg/kg PO q 12 h, 4 hr): 42.5 ng/mL
- concentration at 6 h ([1]; methadone 1 mg/kg PO 24 h after starting fluconazole 5 mg/kg PO q 12 h, 6 hr): 33.9 ng/mL
- concentration at 8 h ([1]; methadone 1 mg/kg PO 24 h after starting fluconazole 5 mg/kg PO q 12 h, 8 hr): 27.6 ng/mL
- concentration at 12 h ([1]; methadone 1 mg/kg PO 24 h after starting fluconazole 5 mg/kg PO q 12 h, 12 hr): 20.2 ng/mL
- concentration at 24 h ([1]; methadone 1 mg/kg PO 24 h after starting fluconazole 5 mg/kg PO q 12 h, 24 hr): 8.3 ng/mL
- concentration at 0 h ([1]; methadone 1 mg/kg PO 24 h after starting fluconazole 5 mg/kg PO q 24 h, 0 hr): 0 ng/mL
- concentration at 0.333 h ([1]; methadone 1 mg/kg PO 24 h after starting fluconazole 5 mg/kg PO q 24 h, 0.333 hr): 5.8 ng/mL
- concentration at 0.667 h ([1]; methadone 1 mg/kg PO 24 h after starting fluconazole 5 mg/kg PO q 24 h, 0.667 hr): 22.4 ng/mL
- concentration at 1 h ([1]; methadone 1 mg/kg PO 24 h after starting fluconazole 5 mg/kg PO q 24 h, 1 hr): 33.7 ng/mL
- concentration at 2 h ([1]; methadone 1 mg/kg PO 24 h after starting fluconazole 5 mg/kg PO q 24 h, 2 hr): 39.9 ng/mL
- concentration at 4 h ([1]; methadone 1 mg/kg PO 24 h after starting fluconazole 5 mg/kg PO q 24 h, 4 hr): 31.4 ng/mL
- concentration at 6 h ([1]; methadone 1 mg/kg PO 24 h after starting fluconazole 5 mg/kg PO q 24 h, 6 hr): 24 ng/mL
- concentration at 8 h ([1]; methadone 1 mg/kg PO 24 h after starting fluconazole 5 mg/kg PO q 24 h, 8 hr): 18.4 ng/mL
- concentration at 12 h ([1]; methadone 1 mg/kg PO 24 h after starting fluconazole 5 mg/kg PO q 24 h, 12 hr): 15.3 ng/mL
- concentration at 24 h ([1]; methadone 1 mg/kg PO 24 h after starting fluconazole 5 mg/kg PO q 24 h, 24 hr): 5.5 ng/mL
- Plasma methadone concentration (not exceeded in any of 6 dogs) ([1]; methadone alone 1 mg/kg PO): ≤ 2 ng/mL
- Plasma methadone concentration, individual dogs ([1]; methadone alone 1 mg/kg PO, 0 hr): <0.5 ng/mL
- Plasma methadone concentration, individual dogs ([1]; methadone alone 1 mg/kg PO, 0.333 hr): <0.5 ng/mL (3×) and 1.3 ng/mL (2×) and 1.9 ng/mL
- Plasma methadone concentration, individual dogs ([1]; methadone alone 1 mg/kg PO, 0.667 hr): 1.9 ng/mL and 1.2 ng/mL and 0.7 ng/mL and 1.3 ng/mL and 1.5 ng/mL and 1.0 ng/mL
- Plasma methadone concentration, individual dogs ([1]; methadone alone 1 mg/kg PO, 1 hr): 1.2 ng/mL (2×) and 1.5 ng/mL and 1.4 ng/mL and 1.1 ng/mL
- Plasma methadone concentration, individual dogs ([1]; methadone alone 1 mg/kg PO, 2 hr): <0.5 ng/mL (2×) and 0.8 ng/mL and 1.3 ng/mL and 0.6 ng/mL and 0.9 ng/mL
- Plasma methadone concentration, individual dogs ([1]; methadone alone 1 mg/kg PO, 4 hr): <0.5 ng/mL (2×) and 1.0 ng/mL and 0.5 ng/mL and 0.7 ng/mL
- Plasma methadone concentration, individual dogs ([1]; methadone alone 1 mg/kg PO, 6 hr): <0.5 ng/mL
- Plasma methadone concentration, individual dogs ([1]; methadone alone 1 mg/kg PO, 8 hr): <0.5 ng/mL
- Plasma methadone concentration, individual dogs ([1]; methadone alone 1 mg/kg PO, 12 hr): <0.5 ng/mL
- Plasma methadone concentration, individual dogs ([1]; methadone alone 1 mg/kg PO, 24 hr): <0.5 ng/mL
- Perioperative nausea or vomiting (dogs affected/dogs in group) [2]: 2/13
- Plasma methadone concentrations median (range) ([3]; injectable methadone 0.5 mg/kg SC q 4 h, Day 1 4:00 PM): 14.4 (5.4-32.9)^1
- Plasma methadone concentrations median (range) ([3]; injectable methadone 0.5 mg/kg SC q 4 h, Day 1 8:00 PM): 22.4 (14.8-47.7)
- Plasma methadone concentrations median (range) ([3]; injectable methadone 0.5 mg/kg SC q 4 h, Day 2 5:00 PM): 2.0 (0-10)^1,2
- Plasma methadone concentrations median (range) ([3]; oral methadone/fluconazole/naltrexone formulation 0.5 mg/kg (methadone) PO q 12 h, Day 1 4:00 PM): 20.6 (2.6-30.3)^2
- Plasma methadone concentrations median (range) ([3]; oral methadone/fluconazole/naltrexone formulation 0.5 mg/kg (methadone) PO q 12 h, Day 1 8:00 PM): 17.6 (2.0-29.8)^1
- Plasma methadone concentrations median (range) ([3]; oral methadone/fluconazole/naltrexone formulation 0.5 mg/kg (methadone) PO q 12 h, Day 2 5:00 PM): 14.1 (3.6-41.7)^2,3
- Plasma methadone concentrations median (range) ([3]; oral methadone/fluconazole/naltrexone formulation 1 mg/kg (methadone) PO q 12 h, Day 1 4:00 PM): 36.2 (3.2-67.7)^1,2
- Plasma methadone concentrations median (range) ([3]; oral methadone/fluconazole/naltrexone formulation 1 mg/kg (methadone) PO q 12 h, Day 1 8:00 PM): 27.7 (2.1-54.8)^1
- Plasma methadone concentrations median (range) ([3]; oral methadone/fluconazole/naltrexone formulation 1 mg/kg (methadone) PO q 12 h, Day 2 5:00 PM): 46.7 (1.4-98.5)^1,3
- Increase in methadone drug exposure when fluconazole is administered with methadone [4]: 30-35%
- Mean plasma concentration of methadone [5]: exceeded 10 ng/mL
- Treatment Outcome: Failure (number of dogs, rescue analgesic needed) [6]: 0
- Treatment Outcome: Success (number of dogs, no rescue analgesic) [6]: 13
- Sedation (healthy dogs): not noted in any of the dogs at any time point
- Pre-anesthetic sedation: A. None - no apparent effect (number of dogs) [7]: 0
- Pre-anesthetic sedation: B. Mild - drowsy, but still active (number of dogs) [7]: 7
- Pre-anesthetic sedation: C. Moderate - drowsy, glazed eyes, but still able to walk without assistance (number of dogs) [7]: 3
- Pre-anesthetic sedation: D. Heavy - Very drowsy, unable to walk or requires assistance to walk (number of dogs) [7]: 3
- IV Catheter placement: A. Unable to restrain the dog (number of dogs) [8]: 0
- IV Catheter placement: B. The dog was restrained, but was difficult (number of dogs) [8]: 2
- IV Catheter placement: C. The dog was restrained with little effort (number of dogs) [8]: 8
- IV Catheter placement: D. The dog was unable to sit sternal and had to be supported (number of dogs) [8]: 3
- Persistence of methadone plasma concentrations compared to the standard formulation of methadone (in vivo; injectable opioid formulation containing an azole antifungal): persisted longer
- Time to which methadone plasma concentrations persisted (in vivo; injectable opioid formulation containing an azole antifungal, SC at 0 and 4 h, one dog): at least 32 hours
- concentration at 32 h (in vivo; mixed breed, dog, in vivo, sc): 4 ng/mL
